Patent US20240368565A1, “COMPLEMENTATION-BASED TAGS AND REPORTERS FOR DUAL-MODALITY LABELING” (Promega Corporation, priority 2023, published 2024)
Peptide text beside a SMILES is read from it. * marks the point of attachment. Biotin = O=C1N[C@H]2[C@H](CS[C@H]2CCCCC(=O)*)N1

Tests used:
Experiment in all cases: biochemical
Assay type in all cases: binding
[1] = biological target: HaloTag[22-297](M2F + F148M + V177E)-12xGly/Ser-LgBiT-3xGly/Ser-6xHis (Rhodococcus rhodochrous, UniProt P0A3G2, A155T/A167V/A172T/A224E/C128F/C176G/D78G/E160K/E257K/F168M/H272N/K175M/K195N/L47V/L88M/N227D/S58T/T264A/V197E/Y273L/Y87F)
Sequence of HaloTag[22-297](M2F + F148M + V177E)-12xGly/Ser-LgBiT-3xGly/Ser-6xHis (P0A3G2 23-290 with tags or gaps with the stated changes): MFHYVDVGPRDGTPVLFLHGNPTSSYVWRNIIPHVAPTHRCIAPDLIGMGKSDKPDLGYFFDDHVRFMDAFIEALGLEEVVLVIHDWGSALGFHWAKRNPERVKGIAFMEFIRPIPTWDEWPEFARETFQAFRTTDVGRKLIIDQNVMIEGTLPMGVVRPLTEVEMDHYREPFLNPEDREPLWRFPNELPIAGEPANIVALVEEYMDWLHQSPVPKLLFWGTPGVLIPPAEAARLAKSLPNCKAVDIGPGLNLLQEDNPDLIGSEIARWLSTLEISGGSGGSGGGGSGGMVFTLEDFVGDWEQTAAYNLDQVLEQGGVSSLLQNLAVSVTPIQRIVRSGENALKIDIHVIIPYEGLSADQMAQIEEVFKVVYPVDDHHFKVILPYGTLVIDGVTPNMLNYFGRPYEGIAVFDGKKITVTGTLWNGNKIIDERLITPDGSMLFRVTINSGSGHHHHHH

[2] = biological target: HaloTag[22-297](M2F + K140E)-12xGly/Ser-LgBiT-3xGly/Ser-6xHis (Rhodococcus rhodochrous, UniProt P0A3G2, A155T/A167V/A172T/A224E/C128F/C176G/D78G/E257K/H272N/K175M/K195N/L47V/L88M/N227D/S58T/T264A/Y273L/Y87F); conditions: biotinylated peptide on streptavidin probes, PBST, 25° C.
LgBiT-6xHis = LgBiT-6xHis (Oplophorus gracilirostris, UniProt Q9GV45, A31E/A60N/A81I/D135N/F58L/F95D/G42A/G62A/G78A/G94A/G98A/H120P/I103V/I117V/I134L/K70R/L176M/L54V/L73R/L99Q/M102E/N171T/P142E/Q151K/Q38E/Q45L/V71I/Y165I)
[3] = biotinylated peptide on streptavidin probes, PBST, 25° C.

CC[C@H](C)[C@H](NC(=O)[C@H](CCC(=O)O)NC(=O)CCCC[C@@H]1SC[C@@H]2NC(=O)N[C@@H]21)C(=O)NCC(=O)N[C@H](C(=O)N[C@@H](CCCNC(=N)N)C(=O)N[C@@H](Cc1ccccc1)C(=O)N1CCC[C@H]1C(=O)N[C@@H](Cc1ccccc1)C(=O)N[C@@H](CC(=O)O)C(=O)N1CCC[C@H]1C(=O)N[C@@H](Cc1c[nH]cn1)C(=O)N[C@@H](Cc1ccc(O)cc1)C(=O)N[C@H](C(=O)N[C@@H](CCC(=O)O)C(=O)N[C@H](C(=O)N[C@@H](CC(C)C)C(=O)NCC(=O)NCC(=O)NCC(=O)N[C@@H](CO)C(=O)NCC(=O)N[C@H](C(=O)N[C@@H](CO)C(=O)N[C@H](C(=O)N[C@@H](CO)C(=O)NCC(=O)N[C@@H](Cc1c[nH]c2ccccc12)C(=O)N[C@@H](CCCNC(=N)N)C(=O)N[C@@H](CC(C)C)C(=O)N[C@@H](Cc1ccccc1)C(=O)N[C@@H](CCCCN)C(=O)N[C@@H](CCCCN)C(=O)N[C@H](C(=O)N[C@@H](CO)C(=O)O)[C@@H](C)CC)C(C)C)C(C)C)C(C)C)C(C)C)[C@@H](C)O [HaloTag[3-19](G5R)-4xGly/Ser-VSHiBiT] (Biotin-EIGTRFPFDPHYVEVLGGGSGVSVSGWRLFKKIS-OH)
Kd [1]: 0.485 nM

CC[C@H](C)[C@H](NC(=O)[C@H](CCCCN)NC(=O)[C@H](CCCCN)NC(=O)[C@H](Cc1ccccc1)NC(=O)[C@H](CC(C)C)NC(=O)[C@H](CCCNC(=N)N)NC(=O)[C@H](Cc1c[nH]c2ccccc12)NC(=O)CNC(=O)[C@H](CO)NC(=O)[C@@H](NC(=O)[C@H](CO)NC(=O)[C@@H](NC(=O)CNC(=O)[C@H](CO)NC(=O)CNC(=O)CNC(=O)CNC(=O)[C@H](CC(C)C)NC(=O)[C@@H](NC(=O)[C@H](CCC(=O)O)NC(=O)[C@@H](NC(=O)[C@H](Cc1ccc(O)cc1)NC(=O)[C@H](Cc1c[nH]cn1)NC(=O)[C@@H]1CCCN1C(=O)[C@H](CC(=O)O)NC(=O)[C@H](Cc1ccccc1)NC(=O)[C@@H]1CCCN1C(=O)[C@H](Cc1ccccc1)NC(=O)CNC(=O)[C@@H](NC(=O)[C@H](CCCCN)NC(=O)[C@@H](NC(=O)[C@H](CCC(=O)O)NC(=O)CCCC[C@@H]1SC[C@@H]2NC(=O)N[C@@H]21)[C@@H](C)CC)[C@@H](C)O)C(C)C)C(C)C)C(C)C)C(C)C)C(=O)N[C@@H](CO)C(=O)O [HaloTag[3-19](G3K)-4xGly/Ser-VSHiBiT] (Biotin-EIKTGFPFDPHYVEVLGGGSGVSVSGWRLFKKIS-OH)
Kd ([2]; KD): 0.264 nM | Kd [1]: 0.102 nM

EIGTGFPFRPHYVEVRGGGSGVSVSGWRLFKKIS [HaloTag[3-19](D9R + L16R)-4xGS-VSHiBiT]
Koff [2]: NA (dissociation that is too slow for the instrument to measure (limit 10^6 l/s)) | Kon [2]: 134000 M⁻¹ s⁻¹ | Koff (LgBiT-6xHis; [3]): NA (dissociation that is too slow for the instrument to measure (limit 10^6 l/s)) | Kon (LgBiT-6xHis; [3]): 64800 M⁻¹ s⁻¹

CC[C@H](C)[C@H](NC(=O)[C@H](CCCCN)NC(=O)[C@H](CCCCN)NC(=O)[C@H](Cc1ccccc1)NC(=O)[C@H](CC(C)C)NC(=O)[C@H](CCCNC(=N)N)NC(=O)[C@H](Cc1c[nH]c2ccccc12)NC(=O)CNC(=O)[C@H](CO)NC(=O)[C@@H](NC(=O)[C@H](CO)NC(=O)[C@@H](NC(=O)CNC(=O)[C@H](CO)NC(=O)CNC(=O)CNC(=O)CNC(=O)[C@H](CC(C)C)NC(=O)[C@@H](NC(=O)[C@H](CCC(=O)O)NC(=O)[C@@H](NC(=O)[C@H](Cc1ccc(O)cc1)NC(=O)[C@H](Cc1c[nH]cn1)NC(=O)[C@@H]1CCCN1C(=O)[C@H](CC(=O)O)NC(=O)[C@H](Cc1ccccc1)NC(=O)[C@@H]1CCCN1C(=O)[C@H](Cc1ccccc1)NC(=O)CNC(=O)[C@@H](NC(=O)[C@H](CCCCN)NC(=O)[C@H](CCCNC(=N)N)NC(=O)[C@H](CCC(=O)O)NC(=O)CCCC[C@@H]1SC[C@@H]2NC(=O)N[C@@H]21)[C@@H](C)O)C(C)C)C(C)C)C(C)C)C(C)C)C(=O)N[C@@H](CO)C(=O)O [HaloTag[3-19](I2R + G3K)-4xGS-VSHiBiT] (Biotin-ERKTGFPFDPHYVEVLGGGSGVSVSGWRLFKKIS-OH)
Kd (LgBiT-6xHis): 0.323 nM
